Earlier results as cited in patent US11053524B2, “Microorganisms having putrescine productivity and process for producing putrescine using the same” (CJ CHEILJEDANG CORPORATION, priority 2013, dated 2021).

Tests used:
puuP = puuP (Escherichia coli, UniProt P76037); details: read-out: Km of putrescine uptake
PotFGHI = PotFGHI (Escherichia coli, UniProt P31133); details: read-out: Km of putrescine uptake
potE = potE (Escherichia coli, UniProt P0AAF1); details: read-out: Km of putrescine uptake
potABCD = potABCD (Escherichia coli, UniProt P0AFK9); details: read-out: Km of putrescine uptake
potABCD, sequence (P0AFK9 24-348): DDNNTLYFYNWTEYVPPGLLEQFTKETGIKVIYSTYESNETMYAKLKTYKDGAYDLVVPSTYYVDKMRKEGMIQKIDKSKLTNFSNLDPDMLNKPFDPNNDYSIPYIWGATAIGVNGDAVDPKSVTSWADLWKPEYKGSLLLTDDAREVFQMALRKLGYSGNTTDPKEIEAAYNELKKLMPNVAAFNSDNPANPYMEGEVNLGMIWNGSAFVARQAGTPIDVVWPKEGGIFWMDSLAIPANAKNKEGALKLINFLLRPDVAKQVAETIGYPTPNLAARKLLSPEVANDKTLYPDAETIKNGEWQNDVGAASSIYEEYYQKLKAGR

PotFGHI, sequence (P31133 27-370): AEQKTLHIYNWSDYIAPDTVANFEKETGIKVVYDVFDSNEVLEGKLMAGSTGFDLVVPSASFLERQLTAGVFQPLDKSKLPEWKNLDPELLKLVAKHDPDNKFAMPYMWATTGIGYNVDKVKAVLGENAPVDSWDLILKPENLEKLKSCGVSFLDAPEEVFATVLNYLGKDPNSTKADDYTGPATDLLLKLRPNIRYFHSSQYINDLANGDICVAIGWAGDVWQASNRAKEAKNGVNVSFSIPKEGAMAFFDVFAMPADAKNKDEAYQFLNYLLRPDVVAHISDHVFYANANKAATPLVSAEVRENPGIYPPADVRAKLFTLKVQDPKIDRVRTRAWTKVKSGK
potE, sequence (P0AAF1 whole entry): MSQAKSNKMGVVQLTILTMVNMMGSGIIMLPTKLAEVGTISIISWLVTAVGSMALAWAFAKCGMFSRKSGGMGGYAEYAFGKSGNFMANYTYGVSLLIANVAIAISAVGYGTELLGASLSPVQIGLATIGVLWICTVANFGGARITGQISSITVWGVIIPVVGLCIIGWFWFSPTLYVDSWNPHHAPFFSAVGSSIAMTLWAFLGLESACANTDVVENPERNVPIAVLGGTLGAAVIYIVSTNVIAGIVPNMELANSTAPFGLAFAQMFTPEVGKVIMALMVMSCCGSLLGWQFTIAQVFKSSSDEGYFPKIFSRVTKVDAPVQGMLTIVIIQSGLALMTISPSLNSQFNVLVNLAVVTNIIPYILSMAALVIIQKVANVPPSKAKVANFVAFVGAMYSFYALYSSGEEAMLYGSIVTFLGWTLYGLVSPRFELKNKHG
puuP, sequence (P76037 whole entry): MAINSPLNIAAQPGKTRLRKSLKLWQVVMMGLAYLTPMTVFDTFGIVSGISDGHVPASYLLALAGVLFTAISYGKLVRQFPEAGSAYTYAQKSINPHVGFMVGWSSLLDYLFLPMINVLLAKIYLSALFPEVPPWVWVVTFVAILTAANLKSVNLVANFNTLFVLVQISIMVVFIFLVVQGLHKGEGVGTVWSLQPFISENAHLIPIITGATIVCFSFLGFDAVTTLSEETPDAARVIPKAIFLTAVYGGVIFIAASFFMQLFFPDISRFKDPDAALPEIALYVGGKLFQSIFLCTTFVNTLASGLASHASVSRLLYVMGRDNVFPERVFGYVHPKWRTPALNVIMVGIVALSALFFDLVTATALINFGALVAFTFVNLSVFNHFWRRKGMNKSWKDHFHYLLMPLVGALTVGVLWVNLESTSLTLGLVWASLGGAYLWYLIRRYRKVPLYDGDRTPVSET

Structure (SMILES): NCCCCN [putrescine, 1,4-butanediamine]
- Km (puuP): 3700 µM
- Km (PotFGHI): 500 µM
- Km (potE): 1800 µM
- putrescine concentration to which the cell is sensitive (yeast cell): 90 mM
- putrescine concentration to which the cell is resistant (yeast cell; yeast cell over-expressing TPO5 gene): 120 mM
- Km (potABCD): 1500 µM
